Data: patent publication US20100137313A1 (ASTRAZENECA AB, priority 2008, published 2010)

Target: S. pneumoniae Topoisomerase IV ATPase (ParE) (Streptococcus pneumoniae serotype 4, UniProt Q59961)
Test: S. pneumoniae Topoisomerase IV ATPase inhibition
Format: biochemical
Details: values marked * are an average of two or more data points; for inhibition at 13 µM: read-out: % Inh (13 μM) of S. pneumoniae Topoisomerase IV ATPase
In short: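 Phosphate release by ParE ATPase from S. pneumoniae read colorimetrically (malachite green, 650 nm), enzyme 1.25 nM, ATP 160 μM, salmon sperm DNA present, buffer 20 mM Tris pH 8.0 with 8 mM MgCl2. IC50 over 10 compound concentrations, EDTA (20 μM) and DMSO controls defining inhibition range.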

Chain of S. pneumoniae Topoisomerase IV ATPase (ParE) (Q59961 whole entry): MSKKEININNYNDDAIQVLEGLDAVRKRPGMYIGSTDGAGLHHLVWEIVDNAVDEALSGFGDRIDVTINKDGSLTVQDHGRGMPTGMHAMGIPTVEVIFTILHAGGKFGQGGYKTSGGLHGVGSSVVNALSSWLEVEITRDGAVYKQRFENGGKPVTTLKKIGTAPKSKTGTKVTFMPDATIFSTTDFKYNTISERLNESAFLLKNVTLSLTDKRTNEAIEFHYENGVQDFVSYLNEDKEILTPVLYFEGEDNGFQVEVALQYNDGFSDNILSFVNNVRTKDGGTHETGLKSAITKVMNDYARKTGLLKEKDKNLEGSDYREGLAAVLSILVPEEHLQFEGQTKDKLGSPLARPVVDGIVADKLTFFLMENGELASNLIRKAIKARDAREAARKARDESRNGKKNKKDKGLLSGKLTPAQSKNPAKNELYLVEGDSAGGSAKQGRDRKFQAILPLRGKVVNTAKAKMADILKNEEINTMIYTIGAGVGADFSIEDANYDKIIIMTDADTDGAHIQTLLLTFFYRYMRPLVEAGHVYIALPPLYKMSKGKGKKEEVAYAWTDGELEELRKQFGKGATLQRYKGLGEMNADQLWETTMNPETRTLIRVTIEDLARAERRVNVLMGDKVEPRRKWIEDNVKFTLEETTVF

Compound	inhibition at 13 µM [%]	% Inh (13 μM) of S. pneumoniae Topoisomerase IV ATPase (13 µM) [%]
Cc1cc(C(F)(F)F)nn1-c1nc(Nc2ccc(F)c(Cl)c2)ncc1-c1cncc(C(=O)NCCNS(C)(=O)=O)c1 [Example 925, 5-(2-(3-chloro-4-fluorophenylamino)-4-(5-methyl-3-(trifluoromethyl)-1H-pyrazol-1-yl)pyrimidin-5-yl)-N-(2-(methylsulfonamido)ethyl)nictinamide]	88	–
Cc1cc(C(F)(F)F)nn1-c1nc(Nc2ccc(F)c(Cl)c2)ncc1-c1cncc(C(=O)NCCS(C)(=O)=O)c1 [Example 926, 5-(2-(3-chloro-4-fluorophenylamino)-4-(5-methyl-3-(trifluoromethyl)-1H-pyrazol-1-yl)pyrimidin-5-yl)-N-(2-(methylsulfonyl)ethyl)nicotinamide]	100	–
Cc1cc(C(F)(F)F)nn1-c1nc(Nc2ccc(F)c(Cl)c2)ncc1-c1cncc(C(=O)NCCO)c1 [Example 927, 5-(2-(3-chloro-4-fluorophenylamino)-4-(5-methyl-3-(trifluoromethyl)-1H-pyrazol-1-yl)pyrimidin-5-yl)-N-(2-hydroxyethyl)nicotinamide]	98	–
Cc1cc(C(F)(F)F)nn1-c1nc(Nc2ccc(F)c(Cl)c2)ncc1-c1cncc(C(=O)NCCN2CCN(C)CC2)c1 [Example 928, 5-(2-(3-chloro-4-fluorophenylamino)-4-(5-methyl-3-(trifluoromethyl)-1H-pyrazol-1-yl)pyrimidin-5-yl)-N-(2-(4-methylpiperazin-1-yl)ethyl)nicotinamide]	85	–
Cc1noc(CCNC(=O)c2cncc(-c3cnc(Nc4ccc(F)c(Cl)c4)nc3-n3nc(C(F)(F)F)cc3C)c2)n1 [Example 929, 5-(2-(3-chloro-4-fluorophenylamino)-4-(5-methyl-3-(trifluoromethyl)-1H-pyrazol-1-yl)pyrimidin-5-yl)-N-(2-(3-methyl-1,2,4-oxadiazol-5-yl)ethyl)nicotinamide]	82	–
CNC(=O)CNC(=O)c1cncc(-c2cnc(Nc3ccc(F)c(Cl)c3)nc2-n2nc(C(F)(F)F)cc2C)c1 [Example 930, 5-(2-(3-chloro-4-fluorophenylamino)-4-(5-methyl-3-(trifluoromethyl)-1H-pyrazol-1-yl)pyrimidin-5-yl)-N-(2-(methylamino)-2-oxoethyl)nicotinamide]	72	–
Cc1cc(C(F)(F)F)nn1-c1nc(Nc2ccc(F)c(Cl)c2)ncc1-c1cncc(C(=O)N2CCOCC2)c1 [Example 931, (5-(2-(3-chloro-4-fluorophenylamino)-4-(5-methyl-3-(trifluoromethyl)-1H-pyrazol-1-yl)pyrimidin-5-yl)pyridin-3-yl)(morpholino)methanone]	100	–
Cc1cc(C(F)(F)F)nn1-c1nc(Nc2ccc(F)c(Cl)c2)ncc1-c1cncc(C(=O)NCCN2CCOCC2)c1 [Example 932, 5-(2-(3-chloro-4-fluorophenylamino)-4-(5-methyl-3-(trifluoromethyl)-1H-pyrazol-1-yl)pyrimidin-5-yl)-N-(2-morpholinoethyl) nicotinamide]	100	–
CONC(=O)c1cncc(-c2cnc(Nc3ccc(F)c(Cl)c3)nc2-n2nc(C(F)(F)F)cc2C)c1 [Example 933, 5-(2-(3-chloro-4-fluorophenylamino)-4-(5-methyl-3-(trifluoromethyl)-1H-pyrazol-1-yl)pyrimidin-5-yl)-N-methoxynicotinamide]	100	–
COCCNC(=O)c1cncc(-c2cnc(Nc3ccc(F)c(Cl)c3)nc2-n2nc(C(F)(F)F)cc2C)c1 [Example 934, 5-(2-(3-chloro-4-fluorophenylamino)-4-(5-methyl-3-(trifluoromethyl)-1H-pyrazol-1-yl)pyrimidin-5-yl)-N-(2-methoxyethyl)nicotinamide]	100	–
COCC(COC)NC(=O)c1cncc(-c2cnc(Nc3ccc(F)c(Cl)c3)nc2-n2nc(C(F)(F)F)cc2C)c1 [Example 935, 5-(2-(3-chloro-4-fluorophenylamino)-4-(5-methyl-3-(trifluoromethyl)-1H-pyrazol-1-yl)pyrimidin-5-yl)-N-(1,3-dimethoxypropan-2-yl)nicotinamide]	100	–
COc1cc(Nc2ncc(-c3cncc(C(=O)NCC(O)CO)c3)c(-n3nc(C(F)(F)F)cc3C)n2)cc(C(F)(F)F)c1 (stereo not shown) [Example 936, N-(2,3-dihydroxypropyl)-5-(2-(3-methoxy-5-(trifluoromethyl)phenylamino)-4-(5-methyl-3-(trifluoromethyl)-1H-pyrazol-1-yl)pyrimidin-5-yl)nicotinamide]	100	–
COCCCNc1nc(Nc2ccc(F)c(Cl)c2)ncc1-c1nnn[nH]1 [Example 937, N2-(3-chloro-4-fluorophenyl)-N4-(3-methoxypropyl)-5-(1H-tetrazol-5-yl)pyrimidine-2,4-diamine]	17	–
CN(C)CCCNc1nc(Nc2ccc(F)c(Cl)c2)ncc1-c1cncc(-c2nnn[nH]2)c1 [Example 938, 5-(5-(1H-tetrazol-5-yl)pyridin-3-yl)-N2-(3-chloro-4-fluorophenyl)-N4-(3-(dimethylamino)propyl)pyrimidin-2,4-diamine]	91	–
COc1ncc(-c2cnc(Nc3ccc(F)c(Cl)c3)nc2NC2CCOC2)cn1 (stereo not shown) [Example 940, N2-(3-chloro-4-fluorophenyl)-2′-methoxy-N4-(tetrahydrofuran-3-yl)-5,5′-bipyrimidine-2,4-diamine]	76	–
COc1ncc(-c2cnc(Nc3ccc(F)c(Cl)c3)nc2N[C@H]2CCOC2)cn1 [Example 941, (S)-N2-(3-chloro-4-fluorophenyl)-2′-methoxy-N4-(tetrahydrofuran-3-yl)-5,5′-bipyrimidine-2,4-diamine]	54	–
O=C(O)/C=C/c1cccc(-c2cnc(Nc3ccc(F)c(Cl)c3)nc2N[C@H]2CCOC2)c1 [Example 942, (S, E)-3-(3-(2-(3-chloro-4-fluorophenylamino)-4-(tetrahydrofuran-3-ylamino)pyrimidin-5-yl)phenyl)acrylic acid]	100	–
Cc1cc(C(F)(F)F)nn1-c1nc(Nc2ccc(F)c(Cl)c2)ncc1-c1cnc(OCCS(C)(=O)=O)c(C(=O)O)c1 [Example 956, 5-(2-(3-chloro-4-fluorophenylamino)-4-(5-methyl-3-(trifluoromethyl)-1H-pyrazol-1-yl)pyrimidin-5-yl)-2-(2-(methylsulfonyl)ethoxy)nicotinic acid]	100	–
COc1cc(Nc2ncc(-c3cnc(OCCNC(C)=O)c(C(=O)O)c3)c(-n3nc(C(F)(F)F)cc3C)n2)cc(OC)c1 [Example 957, 2-(2-acetamidoethoxy)-5-(2-(3,5-dimthoxyphenylamino)-4-(5-methyl-3-(trifluoromethyl)-1H-pyrazol-1-yl)pyrimidin-5-yl)nicotinic acid]	100	–
O=C(O)/C=C/c1cccc(-c2cnc(Nc3ccc(F)c(Cl)c3)nc2N[C@H]2CCOC2)c1 [Example 958]	–	93
CC(C)Oc1ncc(-c2cnc(Nc3ccc(F)c(Cl)c3)nc2-n2ccc(C(F)(F)F)n2)cc1C(=O)O [Example 959, 5-(2-(3-chloro-4-fluorophenylamino)-4-(3-(trifluoromethyl)-1H-pyrazol-1-yl)pyrimidin-5-yl)-2-isopropoxynicotinic acid]	93	–
Cc1cc(C(F)(F)F)nn1-c1nc(Nc2ccc(F)c(Cl)c2)ncc1-c1cnc(OC(C)C)c(C(=O)O)c1 [Example 960, 5-(2-(3-chloro-4-fluorophenylamino)-4-(5-methyl-3-(trifluoromethyl)-1H-pyrazol-1-yl)pyrimidin-5-yl)-2-isopropoxynicotinic acid]	100	–
Cn1ccnc1COc1ncc(-c2cnc(Nc3ccc(F)c(Cl)c3)nc2-n2ccc(C(F)(F)F)n2)cc1C(=O)O [Example 961, 5-(2-(3-chloro-4-fluorophenylamino)-4-(3-(trifluoromethyl)-1H-pyrazol-1-yl)pyrimidin-5-yl)-2-((1-methyl-1H-imidazol-2-yl)methoxy)nicotinic acid]	100	–
CN1CCN(CCOc2ncc(-c3cnc(Nc4ccc(F)c(Cl)c4)nc3-n3ccc(C(F)(F)F)n3)cc2C(=O)O)CC1 [Example 962, 5-(2-(3-chloro-4-fluorophenylamino)-4-(3-(trifluoromethyl)-1H-pyrazol-1-yl)pyrimidin-5-yl)-2-(2-(4-methylpiperazin-1-yl)ethoxy)nicotinic acid]	98	–
Cc1cc(C(F)(F)F)nn1-c1nc(Nc2ccc(F)c(Cl)c2)ncc1-c1cnc(OCCN2CCN(C)CC2)c(C(=O)O)c1 [Example 963, 5-(2-(3-chloro-4-fluorophenylamino)-4-(5-methyl-3-(trifluoromethyl)-1H-pyrazol-1-yl)pyrimidin-5-yl)-2-(2-(4-methylpiperazin-1-yl)ethoxy)nicotinic acid]	100	–
Cc1cc(C)cc(Nc2ncc(-c3cnc(OCCS(C)(=O)=O)c(C(=O)O)c3)c(-n3ccc(C(F)(F)F)n3)n2)c1 [Example 964]	40	–
COc1cc(Nc2ncc(-c3cnc(OCCS(C)(=O)=O)c(C(=O)O)c3)c(-n3nc(C(F)(F)F)cc3C)n2)cc(OC)c1 [Example 965, 5-(2-(3,5-dimethoxyphenylamino)-4-(5-methyl-3-(trifluoromethyl)-1H-pyrazol-1-yl)pyrimidin-5-yl)-2-(2-(methylsulfonyl)ethoxy)nicotinic acid]	100	–
CS(=O)(=O)CCOc1ncc(-c2cnc(Nc3ccc(F)c(Cl)c3)nc2-n2ccc(C(F)(F)F)n2)cc1C(=O)O [Example 966, 5-(2-(3-chloro-4-fluorophenylamino)-4-(3-(trifluoromethyl)-1H-pyrazol-1-yl)pyrimidin-5-yl)-2-(2-(methylsulfonyl)ethoxy)nicotinic acid]	100	–
